From US6627774B2, “N-deacetylthiocolchicine derivatives and pharmaceutical compositions containing them” (Indena S.p.A., priority 2001, dated 2003) come the findings set out here.

SMILES strings stand for the structures.

The subject of the experiment is MCF7-ADRr. It is filed as cell-based. Here is the method:
The cytotoxic activity was evaluated according to M. C. Alley et al., Cancer Research, 48, 589-601, […].

Take `COc1cc2c(c(OC)c1OC)-c1ccc(SC)c(=O)cc1[C@@H](NC(C)=O)CC2` [Thiocolchicine]: the MCF7-ADRr/MCF7 is recorded as 20000.
